Experimental data published in patent US20250110152A1, “METHOD FOR CHARACTERIZING INTERACTION FORCE BETWEEN LIGNIN AND CELLULASE” (NANJING FORESTRY UNIVERSITY, priority 2022, published 2025).

Tested on: cellulase
Test: AFM test of lignin-cellulase interaction force and dissociation rate in liquid phase environment (cellulase-modified AFM probe, lignin film)
Conditions: for interaction force between lignin / lignin model substance and cellulase: AFM force-displacement curves, liquid phase; for Feq: system lignin (model substance)-cellulase

| SMILES | interaction force between lignin / lignin model substance and cellulase | most likely dissociation force (loading rate 3 pN/s) | most likely dissociation force (loading rate 10 pN/s) | Feq | most likely dissociation force (loading rate 5 pN/s) | most likely dissociation force (loading rate 15 pN/s) | most likely dissociation force (loading rate 20 pN/s) | other results |
| --- | --- | --- | --- | --- | --- | --- | --- | --- |
| COc1ccccc1O [GA] | 0.58 nN | 0.39 nN | 0.88 nN | 0.58 nN | – | – | – | most likely dissociation force (loading rate 4 pN/s): 0.41 nN; most likely dissociation force (loading rate 6.61 pN/s): 0.58 nN; most likely dissociation force (loading rate 9 pN/s): 0.63 nN |
| COc1cc(C(O)C(CO)Oc2ccccc2OC)ccc1O (stereo not shown) [GG] | 2.59 nN | – | 1.92 nN | 2.59 nN | 1.65 nN | 2.27 nN | 2.46 nN | most likely dissociation force (loading rate 24.24 pN/s): 2.59 nN |
| CCCc1ccc(O)c(OC)c1 [G] | 0.97 nN | 0.87 nN | – | 0.97 nN | – | – | – | most likely dissociation force (loading rate 1 pN/s): 0.39 nN; most likely dissociation force (loading rate 5.74 pN/s): 0.97 nN; most likely dissociation force (loading rate 7 pN/s): 1.06 nN; most likely dissociation force (loading rate 12 pN/s): 1.25 nN |
| O=C(O)/C=C/c1ccc(O)cc1 [H] | 12.52 nN | – | 10.04 nN | 12.52 nN | 5.00 nN | 11.29 nN | 12.52 nN | most likely dissociation force (loading rate 7 pN/s): 5.49 nN |
| COc1ccccc1OC(CO)C(O)c1cc(OC)c(O)c(OC)c1 (stereo not shown) [SG] | 11.69 nN | – | 7.65 nN | 11.69 nN | – | 8.80 nN | – | most likely dissociation force (loading rate 13 pN/s): 8.25 nN; most likely dissociation force (loading rate 18.64 pN/s): 11.69 nN; most likely dissociation force (loading rate 23 pN/s): 13.40 nN |
| COc1cccc(OC)c1O [S] | 4.76 nN | 3.02 nN | – | 4.76 nN | 4.05 nN | – | 8.54 nN | most likely dissociation force (loading rate 7.89 pN/s): 4.76 nN; most likely dissociation force (loading rate 12 pN/s): 5.21 nN |
| COc1cc(/C=C/CO)cc(OC)c1O [S—OH] | 4.31 nN | 3.99 nN | 4.58 nN | 4.31 nN | – | – | – | most likely dissociation force (loading rate 1 pN/s): 2.66 nN; most likely dissociation force (loading rate 5.79 pN/s): 4.31 nN; most likely dissociation force (loading rate 18 pN/s): 6.58 nN |
